Experimental data reported in patent US10947254B2, “Methods for treating ulcerative colitis using 3-((1R,3s,5S)-3-((7-((5-methyl-1H-pyrazol-3-yl)amino)-1,6-naphthyridin-5-yl)amino)-8-azabicyclo[3.2.1]octan-8-yl)propanenitrile” (priority 2015, dated 2021).

Test system: IL-4 induced STAT6 phosphorylation in THP-1 human monocytic cells
Conditions: THP-1 cells

Row | SMILES | THP-1 IL4 pIC50
1 | COC(=O)CN1[C@@H]2CC[C@H]1C[C@H](Nc1nc(Nc3cc(C)[nH]n3)cc3ncccc13)C2 [Example 1-1] | C (C represents a pEC50 value <6.7 (EC50>200 nM))
2 | COC(=O)CCCN1[C@@H]2CC[C@H]1C[C@H](Nc1nc(Nc3cc(C)[nH]n3)cc3ncccc13)C2 [Example 1-3] | C (C represents a pEC50 value <6.7 (EC50>200 nM))
3 | Cc1cc(Nc2cc3ncccc3c(N[C@@H]3C[C@H]4CC[C@@H](C3)N4CC(N)=O)n2)n[nH]1 [Example 1-6] | C (C represents a pEC50 value <6.7 (EC50>200 nM))
4 | CNC(=O)CN1[C@@H]2CC[C@H]1C[C@H](Nc1nc(Nc3cc(C)[nH]n3)cc3ncccc13)C2 [Example 1-7] | C (C represents a pEC50 value <6.7 (EC50>200 nM))
5 | Cc1cc(Nc2cc3ncccc3c(N[C@@H]3C[C@H]4CC[C@@H](C3)N4CC(=O)N(C)C)n2)n[nH]1 [Example 1-8] | C (C represents a pEC50 value <6.7 (EC50>200 nM))
6 | Cc1cc(Nc2cc3ncccc3c(N[C@@H]3C[C@H]4CC[C@@H](C3)N4CCCF)n2)n[nH]1 [Example 1-9] | C (C represents a pEC50 value <6.7 (EC50>200 nM))
7 | Cc1cc(Nc2cc3ncccc3c(N[C@@H]3C[C@H]4CC[C@@H](C3)N4CCC(F)(F)F)n2)n[nH]1 [Example 1-10] | C (C represents a pEC50 value <6.7 (EC50>200 nM))
8 | Cc1cc(Nc2cc3ncccc3c(N[C@@H]3C[C@H]4CC[C@@H](C3)N4CC(=O)N[C@@H]3CCOC3=O)n2)n[nH]1 [Example 1-11] | C (C represents a pEC50 value <6.7 (EC50>200 nM))
9 | Cc1cc(Nc2cc3ncccc3c(N[C@@H]3C[C@H]4CC[C@@H](C3)N4CC(=O)N[C@H]3CCOC3=O)n2)n[nH]1 [Example 1-12] | C (C represents a pEC50 value <6.7 (EC50>200 nM))
10 | Cc1cc(Nc2cc3ncccc3c(N[C@@H]3C[C@H]4CC[C@@H](C3)N4CC(C)C)n2)n[nH]1 [Example 1-13] | A (A represents a pEC50 value ≥7.5 (EC50≤32 nM))
11 | COCCCN1[C@@H]2CC[C@H]1C[C@H](Nc1nc(Nc3cc(C)[nH]n3)cc3ncccc13)C2 [Example 1-15] | C (C represents a pEC50 value <6.7 (EC50>200 nM))
12 | Cc1cc(Nc2cc3ncccc3c(N[C@@H]3C[C@H]4CC[C@@H](C3)N4C(C)CC#N)n2)n[nH]1 (stereo partly drawn) [Example 1-21] | A (A represents a pEC50 value ≥7.5 (EC50≤32 nM))
13 | Cc1cc(Nc2cc3ncccc3c(N[C@@H]3C[C@H]4CC[C@@H](C3)N4C[C@H]3CCC(=O)O3)n2)n[nH]1 [Example 1-29] | C (C represents a pEC50 value <6.7 (EC50>200 nM))
14 | COC(=O)CN1[C@@H]2CCC[C@H]1C[C@H](Nc1nc(Nc3cc(C)[nH]n3)cc3ncccc13)C2 [Example 1-32] | C (C represents a pEC50 value <6.7 (EC50>200 nM))
15 | COC(=O)CCN1[C@@H]2CCC[C@H]1C[C@H](Nc1nc(Nc3cc(C)[nH]n3)cc3ncccc13)C2 [Example 1-33] | C (C represents a pEC50 value <6.7 (EC50>200 nM))
16 | COC(=O)CCCN1[C@@H]2CCC[C@H]1C[C@H](Nc1nc(Nc3cc(C)[nH]n3)cc3ncccc13)C2 [Example 1-34] | C (C represents a pEC50 value <6.7 (EC50>200 nM))
17 | Cc1cc(Nc2cc3ncccc3c(N[C@@H]3C[C@H]4CCC[C@@H](C3)N4CC(=O)OC(C)C)n2)n[nH]1 [Example 1-35] | A (A represents a pEC50 value ≥7.5 (EC50≤32 nM))
18 | Cc1cc(Nc2cc3ncccc3c(N[C@@H]3C[C@H]4CCC[C@@H](C3)N4CC(=O)N[C@@H]3CCOC3=O)n2)n[nH]1 [Example 1-41] | C (C represents a pEC50 value <6.7 (EC50>200 nM))
19 | Cc1cc(Nc2cc3ncccc3c(N[C@@H]3C[C@H]4CCC[C@@H](C3)N4CC(=O)N[C@H]3CCOC3=O)n2)n[nH]1 [Example 1-42] | C (C represents a pEC50 value <6.7 (EC50>200 nM))
20 | Cc1cc(Nc2cc3ncccc3c(N[C@@H]3C[C@H]4CCC[C@@H](C3)N4Cc3cccc(O)c3)n2)n[nH]1 [Example 1-49] | A (A represents a pEC50 value ≥7.5 (EC50≤32 nM))
21 | CCOCC(=O)N1[C@@H]2CC[C@H]1C[C@H](Nc1nc(Nc3cc(C)[nH]n3)cc3ncccc13)C2 [Example 2-4] | C (C represents a pEC50 value <6.7 (EC50>200 nM))
22 | Cc1cc(Nc2cc3ncccc3c(N[C@@H]3C[C@H]4CC[C@@H](C3)N4C(=O)CN(C)C)n2)n[nH]1 [Example 2-5] | C (C represents a pEC50 value <6.7 (EC50>200 nM))
23 | CCC(=O)N1[C@@H]2CCC[C@H]1C[C@H](Nc1nc(Nc3cc(C)[nH]n3)cc3ncccc13)C2 [Example 2-15] | A (A represents a pEC50 value ≥7.5 (EC50≤32 nM))
24 | CCC(C)C(=O)N1C2CCCC1CC(Nc1nc(Nc3cc(C)[nH]n3)cc3ncccc13)C2 (stereo not drawn) [Example 2-18] | A (A represents a pEC50 value ≥7.5 (EC50≤32 nM))
25 | Cc1cc(Nc2cc3ncccc3c(N[C@@H]3C[C@H]4CC[C@@H](C3)N4C(=O)OCC(C)C)n2)n[nH]1 [Example 3-3] | A (A represents a pEC50 value ≥7.5 (EC50≤32 nM))
26 | C=CCOC(=O)N1[C@@H]2CC[C@H]1C[C@H](Nc1nc(Nc3cc(C)[nH]n3)cc3ncccc13)C2 [Example 3-4] | A (A represents a pEC50 value ≥7.5 (EC50≤32 nM))

Row | SMILES | THP-1 IL4 pIC50
27 | CCOC(=O)N1[C@@H]2CCC[C@H]1C[C@H](Nc1nc(Nc3cc(C)[nH]n3)cc3ncccc13)C2 [Example 3-6] | A (A represents a pEC50 value ≥7.5 (EC50≤32 nM))
28 | C=CCOC(=O)N1[C@@H]2CCC[C@H]1C[C@H](Nc1nc(Nc3cc(C)[nH]n3)cc3ncccc13)C2 [Example 3-8] | A (A represents a pEC50 value ≥7.5 (EC50≤32 nM))
29 | COCCOC(=O)N1[C@@H]2CCC[C@H]1C[C@H](Nc1nc(Nc3cc(C)[nH]n3)cc3ncccc13)C2 [Example 3-9] | A (A represents a pEC50 value ≥7.5 (EC50≤32 nM))
30 | Cc1cc(Nc2cc3ncccc3c(N[C@@H]3C[C@H]4CCC[C@@H](C3)N4S(C)(=O)=O)n2)n[nH]1 [Example 4-16] | A (A represents a pEC50 value ≥7.5 (EC50≤32 nM))
31 | Cc1cc(Nc2cc3ncccc3c(N[C@@H]3C[C@H]4CCC[C@@H](C3)N4S(=O)(=O)CC(C)C)n2)n[nH]1 [Example 4-17] | A (A represents a pEC50 value ≥7.5 (EC50≤32 nM))
32 | Cc1cc(Nc2cc3ncccc3c(N[C@@H]3C[C@H]4CCC[C@@H](C3)N4S(=O)(=O)C3CNC3)n2)n[nH]1 [Example 4-21] | C (C represents a pEC50 value <6.7 (EC50>200 nM))
33 | C=CCS(=O)(=O)N1[C@@H]2CCC[C@H]1C[C@H](Nc1nc(Nc3cc(C)[nH]n3)cc3ncccc13)C2 [Example 4-22] | A (A represents a pEC50 value ≥7.5 (EC50≤32 nM))
34 | Cc1ccc(S(=O)(=O)N2[C@@H]3CCC[C@H]2C[C@H](Nc2nc(Nc4cc(C)[nH]n4)cc4ncccc24)C3)cn1 [Example 4-25] | A (A represents a pEC50 value ≥7.5 (EC50≤32 nM))
35 | CCS(=O)(=O)N1[C@@H]2CCC[C@H]1C[C@H](Nc1nc(Nc3cc(C)[nH]n3)cc3nc(CN4CCOCC4)ccc13)C2 [Example 5-23] | A (A represents a pEC50 value ≥7.5 (EC50≤32 nM))
36 | Cc1cc(Nc2cc3nc(CN4CCOCC4)ccc3c(N[C@@H]3C[C@H]4CCC[C@@H](C3)N4CCC#N)n2)n[nH]1 [Example 5-26] | A (A represents a pEC50 value ≥7.5 (EC50≤32 nM))
37 | Cc1cc(Nc2cc3nc(CN4CCOCC4)ccc3c(N[C@H]3C[C@H]4CCC[C@@H](C3)N4CC(F)(F)F)n2)n[nH]1 [Example 5-29] | B (B represents a pEC50 value between 6.7 and 7.5 (EC50 between 200 nM and 32 nM))
38 | Cc1cc(Nc2cc3nc(CS(C)(=O)=O)ccc3c(N[C@@H]3C[C@H]4CC[C@@H](C3)N4CCF)n2)n[nH]1 [Example 5-41] | C (C represents a pEC50 value <6.7 (EC50>200 nM))
39 | Cc1cc(Nc2cc3nc(CS(C)(=O)=O)ccc3c(N[C@@H]3C[C@H]4CC[C@@H](C3)N4CCCF)n2)n[nH]1 [Example 5-42] | C (C represents a pEC50 value <6.7 (EC50>200 nM))
40 | Cc1cnc2cc(Nc3cc(C)[nH]n3)nc(N[C@@H]3C[C@H]4CC[C@@H](C3)N4Cc3ccncc3)c2c1 [Example 6-2] | A (A represents a pEC50 value ≥7.5 (EC50≤32 nM))
41 | COc1cnc2cc(Nc3cc(C)[nH]n3)nc(N[C@@H]3C[C@H]4CC[C@@H](C3)N4CCC#N)c2c1 [Example 6-11] | A (A represents a pEC50 value ≥7.5 (EC50≤32 nM))
42 | COc1cnc2cc(Nc3cc(C)[nH]n3)nc(N[C@@H]3C[C@H]4CCC[C@@H](C3)N4C(=O)CN(C)C)c2c1 [Example 6-30] | C (C represents a pEC50 value <6.7 (EC50>200 nM))
43 | COC(=O)c1cnc2cc(Nc3cc(C)[nH]n3)nc(N[C@@H]3C[C@H]4CC[C@@H](C3)N4CCC#N)c2c1 [Example 6-32] | A (A represents a pEC50 value ≥7.5 (EC50≤32 nM))
44 | COC(=O)c1cnc2cc(Nc3cc(C)[nH]n3)nc(N[C@@H]3C[C@H]4CC[C@@H](C3)N4C(=O)CN(C)C)c2c1 [Example 6-39] | C (C represents a pEC50 value <6.7 (EC50>200 nM))
45 | C=CCOC(=O)N1[C@@H]2CC[C@H]1C[C@H](Nc1nc(Nc3cc(C)[nH]n3)cc3ncc(C(=O)OC)cc13)C2 [Example 6-40] | A (A represents a pEC50 value ≥7.5 (EC50≤32 nM))
46 | COC(=O)c1cnc2cc(Nc3cc(C)[nH]n3)nc(N[C@@H]3C[C@H]4CC[C@@H](C3)N4CC(=O)OC(C)C)c2c1 [Example 6-41] | A (A represents a pEC50 value ≥7.5 (EC50≤32 nM))
47 | CNC(=O)CN1[C@@H]2CC[C@H]1C[C@H](Nc1nc(Nc3cc(C)[nH]n3)cc3ncc(C(=O)OC)cc13)C2 [Example 6-42] | C (C represents a pEC50 value <6.7 (EC50>200 nM))
48 | COC(=O)c1cnc2cc(Nc3cc(C)[nH]n3)nc(N[C@@H]3C[C@H]4CC[C@@H](C3)N4C[C@H]3CCC(=O)O3)c2c1 [Example 6-46] | C (C represents a pEC50 value <6.7 (EC50>200 nM))
49 | Cc1cc(Nc2cc3ncc(S(C)(=O)=O)cc3c(N[C@@H]3C[C@H]4CC[C@@H](C3)N4CCC#N)n2)n[nH]1 [Example 6-50] | C (C represents a pEC50 value <6.7 (EC50>200 nM))
50 | Cc1cc(Nc2cc3ncc(S(C)(=O)=O)cc3c(N[C@@H]3C[C@H]4CC[C@@H](C3)N4C(=O)CC#N)n2)n[nH]1 [Example 6-51] | C (C represents a pEC50 value <6.7 (EC50>200 nM))
51 | Cc1cc(Nc2cc3ncc(S(C)(=O)=O)cc3c(N[C@@H]3C[C@H]4CC[C@@H](C3)N4CCF)n2)n[nH]1 [Example 6-54] | C (C represents a pEC50 value <6.7 (EC50>200 nM))
